BindingDB's records for doi:10.1021/jm050524f (The Scripps Research Institute, 2005)
pEC50, pIC50: −log10 of the molar value.

Key:
[1] = Inhibitory concentration against NADH-ubiquinone oxidoreductase
[2] = Inhibitory concentration against NADH ubiquinone oxidoreductase
[3] = target: Hypoxia-inducible factor 1-alpha (Homo sapiens, UniProt Q16665); experiment: Effective concentration to inhibit production of hypoxia inducible factor 1-alpha protein
Hypoxia-inducible factor 1-alpha, sequence (Q16665 whole entry): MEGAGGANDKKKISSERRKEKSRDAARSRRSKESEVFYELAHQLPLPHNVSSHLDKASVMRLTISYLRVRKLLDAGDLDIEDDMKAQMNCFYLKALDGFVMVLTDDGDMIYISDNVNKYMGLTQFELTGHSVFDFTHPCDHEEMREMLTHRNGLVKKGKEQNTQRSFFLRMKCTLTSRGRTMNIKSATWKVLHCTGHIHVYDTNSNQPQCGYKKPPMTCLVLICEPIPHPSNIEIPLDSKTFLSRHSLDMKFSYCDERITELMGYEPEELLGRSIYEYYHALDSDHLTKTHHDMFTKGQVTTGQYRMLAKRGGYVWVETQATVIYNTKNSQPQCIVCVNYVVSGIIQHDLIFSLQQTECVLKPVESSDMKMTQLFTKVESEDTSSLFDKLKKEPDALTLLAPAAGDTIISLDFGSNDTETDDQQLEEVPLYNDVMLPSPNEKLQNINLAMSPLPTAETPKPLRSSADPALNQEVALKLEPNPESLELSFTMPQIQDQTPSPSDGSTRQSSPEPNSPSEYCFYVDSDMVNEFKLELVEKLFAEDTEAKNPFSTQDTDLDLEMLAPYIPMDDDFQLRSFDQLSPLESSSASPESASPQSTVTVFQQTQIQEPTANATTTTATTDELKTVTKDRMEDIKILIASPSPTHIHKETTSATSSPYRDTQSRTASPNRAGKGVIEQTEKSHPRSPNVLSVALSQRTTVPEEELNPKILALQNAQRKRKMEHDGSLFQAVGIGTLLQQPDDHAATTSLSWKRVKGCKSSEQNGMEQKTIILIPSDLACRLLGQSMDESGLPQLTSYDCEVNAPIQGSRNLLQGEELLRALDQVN

With COc1cc(COC(=O)c2ccc3c(c2)C=CC(C)(C)O3)cc(OC)c1OC [2,2-Dimethyl-2H-chromene-6-carboxylic acid 3,4,5-trimethoxy-benzyl ester] the pIC50 [1] was 7.26 and the pIC50 [2] was 7.26.

C=C(Cc1cc(OC)c(OC)c(OC)c1)c1ccc2c(c1)CCC(C)(C)O2 [2,2-Dimethyl-6-[1-(3,4,5-trimethoxy-benzyl)-vinyl]-chroman] gave a pIC50 [1] of 7.74 and a pIC50 [2] of 7.74.

With COc1c(C(C)n2cnc3ncccc32)ccc2c1C=CC(C)(C)O2 (stereo not given) [1-[1-(5-Methoxy-2,2-dimethyl-2H-chromen-6-yl)-ethyl]-1H-imidazo[4,5-b]pyridine] the pEC50 [3] was 4.46.
